Assay results taken from US7148352B2, “Method of inhibiting neurotrophin-receptor binding” (Queen's University at Kingston, priority 1999, dated 2006).
“And” between values parts separate entries of the source, which are not always exact repeats. Equal values may be shown once.

Experiments:
Parameters in all cases: species or system rat
[1] = test system: T1, TrkA and p75^NTR (PC12 cells); assay: 125I-NGF receptor binding to PC12 cells in the presence of competitor; conditions: compound 50 μM; 125I-NGF 1 nM; 2 h at 4° C.; receptor binding as percentage of binding in absence of competitor
T1 construct: PC12 cells (rat pheochromocytoma cells expressing TrkA and p75^NTR; obtained from ATCC); host or cells: PC12 rat pheochromocytoma cells (intact, in suspension)
T1 sequence (P01139 122-241): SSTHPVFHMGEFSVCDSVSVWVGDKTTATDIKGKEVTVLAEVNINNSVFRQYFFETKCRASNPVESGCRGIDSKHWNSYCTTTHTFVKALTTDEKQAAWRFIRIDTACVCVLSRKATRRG
Experimental: (§1) The radio-iodination and receptor binding of NGF (Sutter et al., 1979) was performed with modifications (Ross et al., 1997) as follows: Evaluation of the ability of NCP compounds to inhibit TrkA and p75^NTR binding was determined by the binding of ^125I-NGF to PC12 cells (rat pheochromocytoma cells expressing TrkA and p75^NTR; obtained from ATCC) and PC12^nnr5 (rat pheochromocytoma cells expressing p75^NTR only; obtained from Dr. L. Greene, Columbia University, NY). The p75^NTR is in a low affinity state and a high affinity state, respectively, in these cell types (Ross et al., 1998). PC12 and PC12^nnr5 cells were grown in RPMI (Sigma) with 10% heat inactivated donor horse serum and 5% fetal calf serum. Cells were harvested by replacing the medium with calcium, magnesium-free balanced salt solution (Gey's solution) and incubating at 37° C. for 15 minutes. Cells were pelleted by centrifugation and suspended in HKR buffer (10 mM Hepes [pH 7.35] containing 125 mM NaCl, 4.8 mM KCl, 1.3 mM CaCl2, 1.2 mM MgSO4, 1.2 mM KH2PO4, 1 g/L glucose and 1 g/L BSA) at a cell concentration of 2×10^6/mL and kept at 4° C. Triplicate tubes were set up for total binding, non-specific binding and binding in the presence of candidate competitor molecule (i.e., a tube for each data point). Each tube contained ^125I-NGF (at 1 nM), 400,000 cells (for a final cell concentration of 10^6/mL) and NGF (50 nM, to define non-specific binding), as required. The tubes were incubated for 2 h at 4° C. and specific binding evaluated by measuring specifically bound DPM (Ross et al., 1997). Data were analysed and the results expressed as receptor binding observed in the presence of competitor (e.g. NCP compounds) as a percentage of receptor binding in the absence of a competitor.

[2] = molecular target: T2, TrkA and p75^NTR (PC12 cells) (Mus musculus, UniProt P01139); assay: as above; conditions: compound 50 μM; 125I-NGF 1 nM; 2 h at 4° C.; average of three values
T2 construct: PC12 cells (rat pheochromocytoma cells expressing TrkA and p75^NTR; obtained from ATCC); host or cells: PC12 rat pheochromocytoma cells (intact, in suspension)
T2 sequence (P01139 122-241): as above
Experimental: as §1

[3] = test system: p75^NTR (PC12^nnr5 cells, expressing p75^NTR only); assay: 125I-NGF receptor binding to PC12^nnr5 cells in the presence of competitor; conditions: compound 50 μM, 125I-NGF 1 nM, 2 h at 4° C.; for nnr5 % of Max, Avg: average of three values; for nnr5 % of Max (individual determinations): receptor binding as percentage of binding in absence of competitor
Experimental: as §1

For O=C(O)CN1C(=O)c2ccc(C(=O)O)cc2C1=O [Compound 100, 4-carboxy-N-(1-carboxymethyl)phthalimide], the “PC12 % of Max (individual determinations)” value [1] was 102 % of Max and 108 % of Max and 137 % of Max, the “PC12 % of Max, Avg” value [2] was “= 116 % of Max” and the “nnr5 % of Max, Avg” value [3] was “= 100 % of Max”. The “nnr5 % of Max (individual determinations)” value [3] was 108 % of Max and 111 % of Max and 80 % of Max.
O=C(O)CCN1C(=O)c2ccc(C(=O)O)cc2C1=O [Compound 101, 4-carboxy-N-(2-carboxyethyl)phthalimide] was tested, and the “PC12 % of Max (individual determinations)” value [1] was 89 % of Max and 94 % of Max and 139 % of Max, the “PC12 % of Max, Avg” value [2] was “= 107 % of Max” and the “nnr5 % of Max, Avg” value [3] was “= 81 % of Max”. The “nnr5 % of Max (individual determinations)” value [3] was 89 % of Max and 91 % of Max and 64 % of Max.
In the case of O=C(O)CCCN1C(=O)c2ccc(C(=O)O)cc2C1=O [Compound 102, 4-carboxy-N-(3-carboxypropyl)phthalimide], the “PC12 % of Max (individual determinations)” value [1] is reported as 79 % of Max and 80 % of Max and 113 % of Max, the “PC12 % of Max, Avg” value [2] is reported as “= 91 % of Max” and the “nnr5 % of Max, Avg” value [3] is reported as “= 55 % of Max”. For the same compound, the “nnr5 % of Max (individual determinations)” value [3] was 55 % of Max and 50 % of Max and 61 % of Max.
O=C(O)CCCCN1C(=O)c2ccc(C(=O)O)cc2C1=O [Compound 103, 4-carboxy-N-(4-carboxybutyl)phthalimide] was tested, and the “PC12 % of Max (individual determinations)” value [1] was 69 % of Max and 65 % of Max and 100 % of Max, the “PC12 % of Max, Avg” value [2] was “= 78 % of Max” and the “nnr5 % of Max, Avg” value [3] was “= 47 % of Max”. The “nnr5 % of Max (individual determinations)” value [3] was 32 % of Max and 69 % of Max and 41 % of Max.
For O=C(O)CCCCCN1C(=O)c2ccc(C(=O)O)cc2C1=O [Compound 104, 4-carboxy-N-(5-carboxypentyl)phthalimide], the “PC12 % of Max (individual determinations)” value [1] was 51 % of Max and 50 % of Max and 66 % of Max, the “PC12 % of Max, Avg” value [2] was “= 56 % of Max” and the “nnr5 % of Max, Avg” value [3] was “= 37 % of Max”. For the same compound, the “nnr5 % of Max (individual determinations)” value [3] was 30 % of Max and 65 % of Max and 17 % of Max.
For O=C(O)c1ccc(N2C(=O)c3ccc(C(=O)O)cc3C2=O)cc1 [Compound 105, 4-carboxy-N-(p-carboxyphenyl)phthalimide], the “PC12 % of Max (individual determinations)” value [1] was 29 % of Max and 38 % of Max and 40 % of Max, the “PC12 % of Max, Avg” value [2] was “= 36 % of Max” and the “nnr5 % of Max, Avg” value [3] was “= 34 % of Max”. The “nnr5 % of Max (individual determinations)” value [3] was 31 % of Max and 17 % of Max and 55 % of Max.
For O=C(O)c1cccc(N2C(=O)c3ccc(C(=O)O)cc3C2=O)c1 [Compound 106, 4-carboxy-N-(m-carboxyphenyl)phthalimide], the “PC12 % of Max (individual determinations)” value [1] was 40 % of Max (2×) and 52 % of Max, the “PC12 % of Max, Avg” value [2] was “= 44 % of Max” and the “nnr5 % of Max, Avg” value [3] was “= 26 % of Max”. The “nnr5 % of Max (individual determinations)” value [3] was 37 % of Max and 16 % of Max and 24 % of Max.
For O=C(O)c1ccc2c(c1)C(=O)N(c1ccccc1C(=O)O)C2=O [Compound 107, 4-carboxy-N-(o-carboxyphenyl)phthalimide], the “PC12 % of Max (individual determinations)” value [1] was 111 % of Max and 86 % of Max and 103 % of Max, the “PC12 % of Max, Avg” value [2] was “= 100 % of Max” and the “nnr5 % of Max, Avg” value [3] was “= 85 % of Max”. For the same compound, the “nnr5 % of Max (individual determinations)” value [3] was 58 % of Max and 113 % of Max and 83 % of Max.
In the case of O=C(O)c1ccc(CN2C(=O)c3ccc(C(=O)O)cc3C2=O)cc1 [Compound 108, 4-carboxy-N-(p-carboxyphenylmethyl)phthalimide], the “PC12 % of Max (individual determinations)” value [1] is reported as 90 % of Max and 55 % of Max and 75 % of Max, the “PC12 % of Max, Avg” value [2] is reported as “= 73 % of Max” and the “nnr5 % of Max, Avg” value [3] is reported as “= 93 % of Max”. For the same compound, the “nnr5 % of Max (individual determinations)” value [3] was 135 % of Max and 77 % of Max and 66 % of Max.
